From paper PMC4914680 (Antimicrobial Agents and Chemotherapy, 2016)
Read-outs that look alike come from different tables or passages of the source.

Tests used:
HIV-1 SF-2 = assay: Multiple-cycle assay, laboratory strains; type: cell-based; conditions: Human immunodeficiency virus 1; SF-2, CXCR4, MT-2
HIV-1 IIIB = assay: Multiple-cycle assay, laboratory strains; type: cell-based; conditions: Human immunodeficiency virus 1, CXCR4, MT-2
HIV-1 HXB2 = assay: Multiple-cycle assay, laboratory strains; type: cell-based; conditions: Human immunodeficiency virus 1; HXB2, CXCR4, MT-2
HIV-1 NL4-3 = assay: Multiple-cycle assay, laboratory strains; type: cell-based; conditions: Human immunodeficiency virus 1, NL43; NL4-3, CXCR4, MT-2
HIV-2 ROD = assay: Multiple-cycle assay, laboratory strains; type: cell-based; conditions: Human immunodeficiency virus 2, MT-2
[1] = tested on: subtype B gag/pr recombinant viruses; assay: Multiple-cycle Gag/Pr phenotyping assay; type: cell-based, HIV-1
[2] = molecular target: HIV-1 reverse transcriptase (Human immunodeficiency virus type 1 group M subtype B, UniProt P03366); assay: In vitro HIV-1 reverse transcriptase assay; type: biochemical
[3] = initial / phase 2a clinical studies; cited from earlier work
[4] = tested on: MJ4, a subtype C molecular clone; assay: RT activity in PBMCs; conditions: Human immunodeficiency virus 1, PBMC
[5] = tested on: HIV-1 subtype G clinical isolates; assay: Drug susceptibility assay using clinical isolates in PBMCs; conditions: Human immunodeficiency virus 1, PBMC
[6] = tested on: HIV-1 group N clinical isolate; assay: as above; conditions: Human immunodeficiency virus 1, PBMC
[7] = human, serum

In the case of `C=C(C)[C@@H]1CC[C@]2(NCCN3CCS(=O)(=O)CC3)CC[C@]3(C)[C@H](CC[C@@H]4[C@@]5(C)CC=C(c6ccc(C(=O)O)cc6)C(C)(C)[C@@H]5CC[C@]43C)[C@@H]12` [BMS-955176], the EC50 (HIV-1 SF-2) is reported as 11 ± 1.5 nM, the EC50 (HIV-1 IIIB) is reported as 2.8 ± 0.3 nM and the EC50 (HIV-1 HXB2) is reported as 11 ± 2 nM. It also gave an EC50 (HIV-1 NL4-3) of 4.7 ± 2.3 nM, an EC50 (HIV-2 ROD) of 15 ± 1.2 nM and an EC50 ([1]; Human immunodeficiency virus 1, read-out: EC50 (mean), full library, None (WT), n=51) of 3 nM. For the same molecule, the EC50 ([1]; Human immunodeficiency virus 1, read-out: EC50 (mean), full library, T371A/Q/N/S/TT, n=6) was 4 nM, the EC50 ([1]; Human immunodeficiency virus 1, read-out: EC50 (mean), full library, V362I, n=5) was 5.3 nM and the EC50 ([1]; Human immunodeficiency virus 1, read-out: EC50 (mean), full library, V370A + ΔT371, n=4) was 12 nM. The EC50 ([1]; Human immunodeficiency virus 1, read-out: EC50 (mean), full library, V370A, n=7) was 2 nM, the EC50 ([1]; Human immunodeficiency virus 1, read-out: EC50 (mean), full library, V370I/L/T, n=4) was 3 nM and the EC50 ([1]; Human immunodeficiency virus 1, read-out: EC50 (mean), full library, V370 M, n=9) was 7 nM. For the same molecule, the EC50 ([1]; Human immunodeficiency virus 1, read-out: EC50 range, V362I-containing viruses, n=5) was 2 to 9.4 nM, the EC50 ([1]; Human immunodeficiency virus 1, read-out: EC50 range, all subtype B, n=87) was 0.7 to 22 nM and the EC50 ([1]; Human immunodeficiency virus 1, read-out: mean EC50, all subtype B, n=87) was 3.9 ± 3.4 nM. The EC50 ([1]; Human immunodeficiency virus 1, read-out: median EC50, V362I-containing viruses, n=5) was 5.7 nM, the EC50 ([1]; Human immunodeficiency virus 1, read-out: median EC50, WT subtype B (n=51)) was 2.5 nM and the EC50 ([1]; Human immunodeficiency virus 1, read-out: median EC50, all subtype B, n=87) was 2.8 nM. For the same molecule, the EC50 ([1]; read-out: EC50 (mean), full library, V362I, n=5) was 5 nM, the IC50 [2] was over 50000 nM and the “clinical safety and tolerability” value [3] was “safe and well tolerated”. For the same molecule, the EC50 [4] was 3 nM, the EC50 ([5]; read-out: Mean EC50 ± SD) was 11 ± 4 nM and the EC50 ([5]; read-out: Median EC50) was 10 nM. It also gave an EC50 ([5]; read-out: Range EC50) of 8 to 15 nM, an EC50 ([6]; read-out: Mean EC50) of 7.2 nM and an EC50 ([6]; read-out: Median EC50) of 7 nM. It also gave an EC50 ([6]; read-out: Range EC50) of 7 nM and a fraction unbound [7] of 0.18.
